What is called EC50 is the concentration that produces a half-maximal response.

One series can be described thus: in vitro. The conditions noted are these: human. On the procedure: (§1) Fig 1 A, Structure of NSC130362. B, Dose response curve of NSC130362 in MIA PaCa-2 cells. Cells were pre-incubated with NSC130362 for 2 h followed by addition of ATO (5 μM) and incubation for an additional 24 h. At the end of the treatment, the ratio of dead cells was determined by a CellTiterGlo reagent.

The test system of series [1] is pancreatic cancer MIA PaCa-2 cells. Kind of series: cells. The note with it: for EC50: Homo sapiens, MIA PaCa-2, read-out: EC50, μM MIA PaCa-2. The protocol: as §1
In series [2] the test system is human primary hepatocytes. Kind of series: cells. The conditions noted are these: Hepatocyte, read-out: EC50, μM Hepatocytes.
Excerpt: (§2) We selected hepatocytes as normal cells because hepatocytes are mediate toxicity to multiple drugs and are used as a standard to assess toxicity of drugs in vitro [28]. […] For comparison with the standard of care, doxorubicin was also included in this analysis.
Series [3] deals with human primary hepatocytes. The conditions noted are these: for times more toxic toward hepatocytes than compound 2: versus compound 2.
Excerpt: as §2

Like-named read-outs stand apart in the source and are kept apart here.

On to `COc1cccc2c1C(=O)c1c(O)c3c(c(O)c1C2=O)C[C@@](O)(C(=O)CO)C[C@@H]3O[C@H]1C[C@H](N)[C@H](O)[C@H](C)O1` [Doxorubicin, reference compound], for which the selectivity ratio in “in vitro” is 3.5. In addition, the concentration for a half-maximal effect (EC50) came out at 0.7 µM in series [1] and 10 µM in series [2]. The “selective cytotoxicity index, times less” value in series [1] (human) is listed as “approximately 25 times”.
Consider `CN(C)C1=C(Cl)C(=O)c2ccccc2C1=O` [compound 14, 2-chloro-3-(dimethylamino)-1,4-NQ], for which the 50% effective concentration (EC50) in series [1] was determined as 7.2 µM; in series [2], 10 µM. The “times more toxic toward hepatocytes than compound 2” value in series [3] is listed as “approximately 2 times”.
In the case of `CN(C)CCCNC1=C(Cl)C(=O)c2ccccc2C1=O` [compound 27], the concentration giving a half-maximal response (EC50) in series [1] worked out at 0.9 µM; in series [2], 24.1 µM. The “improvement in anti-cancer activity” value in series [1] (versus compound 4) came out at 10.8 fold. Besides, the “increase in toxicity to hepatocytes” value in series [3] (versus compound 4) stood at 9.2 fold.
As for `O=C1C(Cl)=C(N2CC2)C(=O)c2ccccc21` [compound 15, 2-chloro-3-(aziridin-1-yl)-1,4-NQ], the half-maximal effective concentration (EC50) was determined as 2.3 µM in series [1] and 2.6 µM in series [2]. In series [3], the “times more toxic toward hepatocytes than compound 2” value was ~6.5 times.
Turning to `CC1=CC(=O)c2ccccc2C1=O` [compound 61, 3-methyl-1,4-NQ, reference compound], the selectivity ratio in the series “in vitro” came to 10.4. In addition, the EC50 was 7.8 µM in series [1]; 15.6 µM in series [3] (read-out: EC50, μM Hepatocytes ATO, in the presence of ATO (5 μM), SD does not exceed 10%); 11.8 µM in series [2]. Also, the improved anti-cancer activity in series [1] (versus 1,4-NQ (compound 56)) came to 1.5 fold. Besides, in series [3], the “times less toxic to hepatocytes” value is “approximately 5 times”.
For the molecule `NC1=CC(=O)c2ccccc2C1=O` [compound 48, 3-amino-1,4-NQ], the EC50 in series [1] came out at 24.4 µM; in series [2] it was 28.1 µM. In addition, in series [3] (versus compound 1), the “increase in toxicity to hepatocytes” value is listed as “approximately 3 fold”.

Source of the values: PMC6433232, “Targeting mitochondria in cancer therapy could provide a basis for the selective anti-cancer activity” (PLoS ONE, 2019).
